Among the data in patent US10144738B2, “Pyrazolo[1,5-A]PYRAZIN-4-YL derivatives” (Pfizer Inc., priority 2016, dated 2018) are IC50 values, retold here.

Common to all, as to assay type: biochemical
What all share (conditions): recombinant human kinase domain, Caliper mobility shift

One assay addresses TYK2 (Homo sapiens (Human), UniProt P29597). Nature of the assay: JAK Caliper enzyme assay at 1 mM ATP (TYK2). The method, then: (§1) Compounds of the invention were evaluated by in vitro methods to determine their respective ability to inhibit the JAK kinases (TYK2, JAK1, JAK2, JAK3).
(§2) The human JAK inhibitory activity was determined by using a microfluidic assay to monitor phosphorylation of a synthetic peptide by the recombinant human kinase domain of each of the four members of the JAK family, JAK1, JAK2, JAK3 and TYK2. […] Each assay condition was optimized for enzyme concentration and room temperature incubation time to obtain a conversion rate of 20% to 30% phosphorylated peptide product. Reactions were terminated by the addition of stop buffer containing EDTA. Utilizing the LabChip 3000 mobility shift technology (Caliper Life Science), each assay reaction was sampled to determine the level of phosphorylation. This technology is separation-based, allowing direct detection of fluorescently labeled substrates and products. Separations are controlled by a combination of vacuum pressure and electric field strength optimized for each peptide substrate.
(§3) JAK Caliper Enzyme Assay at 1 mM ATP
(§4) Compounds were added to a 384-well plate. Reaction mixtures contained 10 mM HEPES, pH 7.4, 10 mM MgCl2, 0.01% BSA, 0.0005% Tween 20, 1 mM ATP and 1 μM peptide substrate. […] The assays were initiated by the addition of 20 nM JAK1, 1 nM JAK2, 1 nM JAK or 1 nM TYK2 enzyme and were incubated at room temperature for three hours for JAK1, 60 minutes for JAK2, 75 minutes for JAK3 or 135 minutes for TYK2. Enzyme concentrations and incubation times were optimized for each new enzyme preps and were modified slightly over time to ensure 20% to 30% phosphorylation. The assays were stopped with 15 μL of 180 mM HEPES, pH 7.4, 20 mM EDTA, and 0.2% Coating Reagent 3. The assay plates were placed on a Caliper Life Science LC3000 instrument, and each well was sampled using appropriate separation conditions to measure the unphosphorylated and phosphorylated peptide.
(§5) The data was collected using the HTS Well Analyzer software from Caliper Life Sciences. The data output for data analysis is the percent product converted calculated on peak height (Equation 1). % product converted=100*((product)/(product+substrate)) Equation 1: […]
(§6) The percent effect at each compound concentration was calculated based on the positive and negative control well contained within each assay plate (Equation 2). […] The negative control wells contained DMSO alone (at the same concentration as the compound wells) that was used to set the baseline activity in the assay (i.e., uninhibited JAK1, JAK2, JAK3 or TYK2). % effect=100*((sample well−negative control)/(positive control-negative control)) Equation 2: The percent effect was plotted against the compound concentration compound.

The target in a further assay is JAK1 (Homo sapiens (Human), UniProt P23458). Nature of the assay: JAK Caliper enzyme assay at 1 mM ATP (JAK1). As for the experimental part:
Compounds of the invention were evaluated by in vitro methods to determine their respective ability to inhibit the JAK kinases (TYK2, JAK1, JAK2, JAK3). The human JAK inhibitory activity was determined by using a microfluidic assay to monitor phosphorylation of a synthetic peptide by the recombinant human kinase domain of each of the four members of the JAK family, JAK1, JAK2, JAK3 and TYK2. […] Reactions were terminated by the addition of stop buffer containing EDTA. Utilizing the LabChip 3000 mobility shift technology (Caliper Life Science), each assay reaction was sampled to determine the level of phosphorylation. This technology is separation-based, allowing direct detection of fluorescently labeled substrates and products. Separations are controlled by a combination of vacuum pressure and electric field strength optimized for each peptide substrate. […] Compounds were added to a 384-well plate. […] Enzyme concentrations and incubation times were optimized for each new enzyme preps and were modified slightly over time to ensure 20% to 30% phosphorylation. […] The assay plates were placed on a Caliper Life Science LC3000 instrument, and each well was sampled using appropriate separation conditions to measure the unphosphorylated and phosphorylated peptide. The data was collected using the HTS Well Analyzer software from Caliper Life Sciences. […] The percent effect at each compound concentration was calculated based on the positive and negative control well contained within each assay plate (Equation 2). […] The percent effect was plotted against the compound concentration compound. […] Where max is the maximum asymptote (complete inhibition), min is the minimum asymptote (no inhibition) and s is the slope factor.

For the next assay, the target named is JAK2 (Homo sapiens (Human), UniProt O60674). Nature of the assay: JAK Caliper enzyme assay at 1 mM ATP (JAK2). As for the experimental part: as §1, §2, §3, §4, §5, §6
Sequence of JAK2 (O60674 849-1124): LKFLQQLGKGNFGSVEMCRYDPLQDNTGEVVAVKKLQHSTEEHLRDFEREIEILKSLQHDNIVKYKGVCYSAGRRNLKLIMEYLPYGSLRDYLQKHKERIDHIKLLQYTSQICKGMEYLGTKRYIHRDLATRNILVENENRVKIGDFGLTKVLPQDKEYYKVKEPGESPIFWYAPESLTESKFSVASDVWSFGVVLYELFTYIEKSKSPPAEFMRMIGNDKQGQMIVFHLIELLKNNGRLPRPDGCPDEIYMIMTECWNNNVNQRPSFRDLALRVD
The target in the next assay is JAK3 (Homo sapiens (Human), UniProt P52333). Nature of the assay: JAK Caliper enzyme assay at 1 mM ATP (JAK3). The method, then:
as §1, §2, §3, §4, §5, §6

Bounds are passed on as bounds.

Sequence of TYK2 (P29597 897-1176): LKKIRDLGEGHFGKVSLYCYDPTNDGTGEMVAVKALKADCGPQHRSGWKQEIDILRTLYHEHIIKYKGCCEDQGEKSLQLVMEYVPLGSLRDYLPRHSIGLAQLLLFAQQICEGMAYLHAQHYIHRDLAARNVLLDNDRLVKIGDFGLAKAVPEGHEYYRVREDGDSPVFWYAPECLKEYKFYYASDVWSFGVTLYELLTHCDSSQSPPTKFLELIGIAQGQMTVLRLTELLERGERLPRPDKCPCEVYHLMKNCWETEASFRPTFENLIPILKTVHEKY
Sequence of JAK3 (P52333 822-1111): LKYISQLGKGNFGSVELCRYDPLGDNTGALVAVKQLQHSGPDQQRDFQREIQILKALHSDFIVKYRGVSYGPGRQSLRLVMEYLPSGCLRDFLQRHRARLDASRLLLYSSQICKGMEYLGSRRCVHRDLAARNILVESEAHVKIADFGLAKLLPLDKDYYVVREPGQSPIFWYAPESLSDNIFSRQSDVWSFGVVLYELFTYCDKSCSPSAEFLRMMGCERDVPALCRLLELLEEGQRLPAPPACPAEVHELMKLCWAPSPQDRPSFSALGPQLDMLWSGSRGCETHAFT
Sequence of JAK1 (P23458 875-1153): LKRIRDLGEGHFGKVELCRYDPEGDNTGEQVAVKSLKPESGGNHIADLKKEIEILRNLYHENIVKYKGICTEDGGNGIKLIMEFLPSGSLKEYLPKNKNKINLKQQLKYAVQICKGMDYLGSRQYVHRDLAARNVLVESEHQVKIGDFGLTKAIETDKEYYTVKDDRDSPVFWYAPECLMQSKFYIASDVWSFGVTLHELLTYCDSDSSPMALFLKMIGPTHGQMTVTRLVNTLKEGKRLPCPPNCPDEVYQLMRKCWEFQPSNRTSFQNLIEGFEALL

The IC50 is the concentration needed to halve the response being measured. Consider `N#CCC1(n2cc(-c3nc(-c4cc(CO)[nH]n4)cn4nccc34)cn2)CN(CC2CC2)C1` [Example 2, 2-(1-(Cyclopropylmethyl)-3-(4-(6-(5-(hydroxymethyl)-1H-pyrazol-3-yl)pyrazolo[1,5-a]pyrazin-4-yl)-1H-pyrazol-1-yl)azetidin-3-yl)acetonitrile], for which the IC50 was 62 nM at TYK2, 1060 nM at JAK1, 299 nM at JAK2 and over 10000 nM on JAK3.

With `CCN1CC(CC#N)(n2cc(-c3nc(-c4cc(CO)[nH]n4)cn4nccc34)cn2)C1` [Example 3, 2-(1-Ethyl-3-(4-(6-(5-(hydroxymethyl)-1H-pyrazol-3-yl)pyrazolo[1,5-a]pyrazin-4-yl)-1H-pyrazol-1-yl)azetidin-3-yl)acetonitrile], the IC50 on TYK2 is 64 nM; on JAK1, 2290 nM.

In the case of `Cn1cc(-c2cn3nccc3c(-c3cnn(C4(CC#N)CCC4)c3)n2)cn1` [Example 4, 2-(1-(4-(6-(1-Methyl-1H-pyrazol-4-yl)pyrazolo[1,5-a]pyrazin-4-yl)-1H-pyrazol-1-yl)cyclobutyl)acetonitrile], the IC50 on TYK2 was 55 nM; on JAK1, 1340 nM; at JAK2, 141 nM; on JAK3, over 10000 nM.

Take `CO[C@H]1C[C@](CC#N)(n2cc(-c3nc(-c4cc(NC(C)=O)[nH]n4)cn4nccc34)cn2)C1` [Example 5, N-(3-(4-(1-((1r,3s)-1-(Cyanomethyl)-3-methoxycyclobutyl)-1H-pyrazol-4-yl)pyrazolo[1,5-a]pyrazin-6-yl)-1H-pyrazol-5-yl)acetamide]: the figures for the IC50 on TYK2, at JAK1 and on JAK3 were 35 nM, 1920 nM and over 10000 nM, respectively.

`CNC(=O)c1cc(-c2cn3nccc3c(-c3cnn([C@]4(CC#N)C[C@@H](OC)C4)c3)n2)[nH]n1` [Example 6, 5-(4-(1-((1r,3s)-1-(Cyanomethyl)-3-methoxycyclobutyl)-1H-pyrazol-4-yl)pyrazolo[1,5-a]pyrazin-6-yl)-N-methyl-1H-pyrazole-3-carboxamide]: the IC50 was 500 nM at JAK2 and over 10000 nM on JAK3.

As to `Cn1cc(-c2cn3nccc3c(-c3cnn(C4(CC#N)CN(S(C)(=O)=O)C4)c3)n2)cn1` [Example 8, 2-(3-(4-(6-(1-Methyl-1H-pyrazol-4-yl)pyrazolo[1,5-a]pyrazin-4-yl)-1H-pyrazol-1-yl)-1-(methylsulfonyl)azetidin-3-yl)acetonitrile], the IC50 on TYK2 is 11 nM; on JAK1, 265 nM; on JAK3 it was over 9280 nM.

In the case of `Cn1cc(-c2cn3nccc3c(-c3cnn(C4(CC#N)CN(S(=O)(=O)C5CC5)C4)c3)n2)cn1` [Example 9, 2-(1-(Cyclopropylsulfonyl)-3-(4-(6-(1-methyl-1H-pyrazol-4-yl)pyrazolo[1,5-a]pyrazin-4-yl)-1H-pyrazol-1-yl)azetidin-3-yl)acetonitrile], the IC50 at TYK2 was 8 nM; on JAK1 it was 185 nM; at JAK2 it was 49 nM; on JAK3, over 10000 nM.

Consider `CCC(=O)N1CC(CC#N)(n2cc(-c3nc(-c4cnn(C)c4)cn4nccc34)cn2)C1` [Example 10, 2-(3-(4-(6-(1-Methyl-1H-pyrazol-4-yl)pyrazolo[1,5-a]pyrazin-4-yl)-1H-pyrazol-1-yl)-1-propionylazetidin-3-yl)acetonitrile], for which the IC50 at TYK2 is 580 nM; at JAK1, 5710 nM; on JAK2, 1600 nM; at JAK3, over 10000 nM.

Turning to `Cn1cc(-c2cn3nccc3c(-c3cnn([C@]4(CC#N)C[C@H](CC#N)C4)c3)n2)cn1` [Example 11, 2,2′-((1s,3s)-1-(4-(6-(1-Methyl-1H-pyrazol-4-yl)pyrazolo[1,5-a]pyrazin-4-yl)-1H-pyrazol-1-yl)cyclobutane-1,3-diyl)diacetonitrile], the IC50 at TYK2 is 8 nM; on JAK1, 273 nM; at JAK2, 38 nM; on JAK3, over 6170 nM.

`Cn1cc(-c2cn3nccc3c(-c3cnn([C@]4(CC#N)C[C@H](O)C4)c3)n2)cn1` [Example 13, 2-((1s,3r)-3-Hydroxy-1-(4-(6-(1-methyl-1H-pyrazol-4-yl)pyrazolo[1,5-a]pyrazin-4-yl)-1H-pyrazol-1-yl)cyclobutyl)acetonitrile]: the values for the IC50 on TYK2, at JAK1 and on JAK3 were 149 nM, 3230 nM and over 10000 nM, respectively.

`Cn1cc(-c2cn3nccc3c(-c3cnn([C@]4(CC#N)C[C@@H](O)C4)c3)n2)cn1` [Example 14, 2-((1r,3s)-3-Hydroxy-1-(4-(6-(1-methyl-1H-pyrazol-4-yl)pyrazolo[1,5-a]pyrazin-4-yl)-1H-pyrazol-1-yl)cyclobutyl)acetonitrile]: the IC50 on TYK2 was 81 nM; at JAK1, 1060 nM; at JAK3 it was over 10000 nM.

Regarding `CO[C@H]1C[C@](CC#N)(n2cc(-c3nc(-c4cnn(C)c4)cn4nccc34)cn2)C1` [Example 15, 2-((1r,3s)-3-Methoxy-1-(4-(6-(1-methyl-1H-pyrazol-4-yl)pyrazolo[1,5-a]pyrazin-4-yl)-1H-pyrazol-1-yl)cyclobutyl)acetonitrile], the IC50 is 1500 nM on JAK1, 228 nM on JAK2 and over 9120 nM on JAK3.

Turning to `CO[C@H]1C[C@@](CC#N)(n2cc(-c3nc(-c4cnn(C)c4)cn4nccc34)cn2)C1` [Example 16, 2-((1s,3r)-3-Methoxy-1-(4-(6-(1-methyl-1H-pyrazol-4-yl)pyrazolo[1,5-a]pyrazin-4-yl)-1H-pyrazol-1-yl)cyclobutyl)acetonitrile], the figures for the IC50 at JAK1, on JAK2 and at JAK3 were 664 nM, 99 nM and 10000 nM, respectively.

Take `C[C@H]1N(CC(F)(F)F)C[C@]1(CC#N)n1cc(-c2nc(-c3cnn(C)c3)cn3nccc23)cn1` [Example 17, 2-((2R,3S)-2-Methyl-3-(4-(6-(1-methyl-1H-pyrazol-4-yl)pyrazolo[1,5-a]pyrazin-4-yl)-1H-pyrazol-1-yl)-1-(2,2,2-trifluoroethyl)azetidin-3-yl)acetonitrile]: the IC50 at TYK2 amounted to 35 nM; on JAK1, 1730 nM; at JAK2, 205 nM; at JAK3 it was 10000 nM.

As for `Cn1cc(-c2cn3nccc3c(-c3cnn([C@]4(CC#N)C[C@@H](c5ccn[nH]5)C4)c3)n2)cn1` [Example 18, 2-((1r,3r)-1-(4-(6-(1-Methyl-1H-pyrazol-4-yl)pyrazolo[1,5-a]pyrazin-4-yl)-1H-pyrazol-1-yl)-3-(1H-pyrazol-5-yl)cyclobutyl)acetonitrile], the IC50 at TYK2 amounted to 47 nM; at JAK1, 1080 nM; on JAK2 it was 206 nM; at JAK3 it was 10000 nM.

Consider `Cc1nn([C@]2(CC#N)C[C@@H](C#N)C2)cc1-c1nc(-c2cnn(C)c2)cn2nccc12` [Example 21, (1r,3r)-3-(Cyanomethyl)-3-(3-methyl-4-(6-(1-methyl-1H-pyrazol-4-yl)pyrazolo[1,5-a]pyrazin-4-yl)-1H-pyrazol-1-yl)cyclobutane-1-carbonitrile], for which the IC50 on TYK2 is 34 nM; at JAK1 it was 1290 nM; at JAK2, 109 nM; at JAK3, over 10000 nM.
